# Test results taken from patent publication EP4389751A1, “HETEROCYCLIC COMPOUNDS AND USES THEREOF” (Kumquat Biosciences Inc., priority 2021, dated 2024).
# Like-named read-outs stand apart in the source and are kept apart here.
# What was measured:
# [1] = biological target: T1, KRAS protein (His-tagged GDP-loaded G12S 1-169) (Homo sapiens, UniProt P01116, G12S); test: Covalent modification of KRAS protein, intact-protein LC-MS; assay type: binding; conditions: 24hrs at room temperature, KRAS protein ~2 µM
# T1 construct: His-tagged GDP-loaded G12S 1-169
# Method: Test compounds are prepared as 10 mM stock solutions in DMSO (Fisher cat#BP231-100). KRAS protein (His-tagged GDP-loaded wildtype 1-169, His-tagged GDP-loaded G12S 1-169 or His-tagged GDP-loaded G12D 1-169) is diluted to ~2 µM in appropriate buffer (e.g., a Hepes buffer at physiological conditions). For testing KRAS modification, compounds are diluted to 50X final test concentration in DMSO in 96-well storage plates. 2 µl of the diluted 50X compounds are added to appropriate wells in the PCR plate (Fisher cat#AB-0800). […] of the stock protein solution is added to each well of the 96-well PCR plate. Reactions are mixed carefully. The plate is sealed well with aluminum plate seal, and stored in drawer at room temperature for 24hrs. 5 µl of 2% formic acid (Fisher cat#A1 17-50) in MilliQ H2O is then added to each well followed by mixing with a pipette. The plate is then resealed with aluminum seal and stored until mass spectrometry analysis.
# The extent of covalent modification of KRAS proteins was determined by liquid chromatography electrospray mass spectrometry analysis of the intact proteins on a Thermo Q-Exactive Plus mass spectrometer. 20 µl of sample was injected onto a bioZen 3.6 µm Intact C4 column (Phenomenex cat#00B-4767-AN) placed in a column oven set to 40°C and separated using a suitable LC gradient from -20% to ~60% solvent B. Solvent A was 0.1% formic acid and solvent B was 0.1% formic acid in acetonitrile. HESI source settings were set to 40, 5 and 1 for the sheath, auxiliary and sweep gas flow, respectively. The spray voltage was 4 kV, and the capillary temperature was 320°C. S-lens RF level was 50 and auxiliary gas heater temperature was set to 200°C. The mass spectrometry was acquired using a scan range from 650 to 1750 m/z using positive polarity at a mass resolution of 70,000, AGC target of 1e6 ions and maximum injection time of 250ms. The recorded protein mass spectrum was deconvoluted from the raw data file using Protein Deconvolution v4.0 (Thermo). The protein mass and adduct masses were exported with their peak intensities. The peak intensities for the unmodified and modified protein were used to calculate the percent covalent modification of the KRAS protein based on the following equation: %KRAS protein modification = ((KRAS-compound) / (KRAS) + (KRAS-Compound)) *100.
# K-Ras G12S = biological target: T2, K-Ras G12S (Homo sapiens, UniProt P01116, G12S); test: HTRF assay of the K-Ras / SOS1 interaction; assay type: biochemical; conditions: IC50 (against K-Ras G12D) to IC50 (against K-Ras G12S)
# T2 construct: made in house; host or cells: E. coli (e.g., BL21 (DE3))
# In short: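 GST-K-Ras G12S with anti-GST-Eu donor and His-hSOS1 with anti-6His-XL665 acceptor in ~5 mM HEPES pH 7.4, ~150 mM NaCl, 1 mM DTT, 0.05% BSA, 0.0025% Igepal. Read after ~10 min or longer; IC50 from 665/620 nm ratio, duplicates at 10 µM down to 0.01 µM.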
# GP2D cells = test: Cell proliferation assay (CellTiter-Glo), K-Ras G12D cells; assay type: cell-based; conditions: read-out: Inhibition of GP2D Cells (IC50)
# In short: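 GP2D (K-Ras G12D) cells seeded in DMEM with 2 mM glutamine and 10% FBS, then dosed next day with a dilution series (e.g., 9-point 3-fold). Viability read by CellTiter-Glo luminescence after about 5 days. IC50 from four-parameter fit.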
Structure (SMILES),% G12S Modification at 24 hr. [1],Ratio of IC50 KRAS G12D vs. IC50 KRAS G12S (K-Ras G12S),IC50 (GP2D cells; GP2D cells (K-Ras G12D)) [nM],IC50 (GP2D cells; GP2d) [nM]
"Cc1ncn(C(=O)N2CCCC(Oc3nc(OC[C@@]45CCCN4C[C@H](F)C5)nc4c(F)c(-c5ccc(F)c6sc(N)c(C#N)c56)c(Cl)cc34)C2)n1 (stereo partly drawn) [Compound A302, 2-amino-4-(6-chloro-8-fluoro-2-(((2R,7aS)-2-fluorotetrahydro-1H-pyrrolizin-7a(5H)-yl)methoxy)-4-((1-(3-methyl-1H-1,2,4-triazole-1-carbonyl)piperidin-3-yl)oxy)quinazolin-7-yl)-7-fluorobenzo[b]thiophene-3-carbonitrile]",++ (++ indicates between about 1%- 20% labelling),A (A: indicates that the ratio of IC50 against KrasG12D vs. IC50 against KrasG12S is 1-fold or greater),,
"Nc1nc2c(-c3c(Cl)cc4c(N5CCC56CCN(C(=O)n5cncn5)CC6)nc(OC[C@@]56CCCN5C[C@H](F)C6)nc4c3F)ccc(F)c2s1 [Compound A288, (1-(7-(2-amino-7-fluorobenzo[d]thiazol-4-yl)-6-chloro-8-fluoro-2-(((2R,7aS)-2-fluorotetrahydro-1H-pyrrolizin-7a(5H)-yl)methoxy)quinazolin-4-yl)-1,7-diazaspiro[3.5]nonan-7-yl)(1H-1,2,4-triazol-1-yl)methanone]",,A (A: indicates that the ratio of IC50 against KrasG12D vs. IC50 against KrasG12S is 1-fold or greater),1000 to 10000,
"N#Cc1cccn1C(=O)N1C2CCC1CN(c1nc(OC[C@@]34CCCN3C[C@H](F)C4)nc3c(F)c(-c4ccc(F)c5sc(N)nc45)c(Cl)cc13)C2 [Compound A121, 1-(3-(7-(2-amino-7-fluorobenzo[d]thiazol-4-yl)-6-chloro-8-fluoro-2-(((2R,7aS)-2-fluorotetrahydro-1H-pyrrolizin-7a(5H)-yl)methoxy)quinazolin-4-yl)-3,8-diazabicyclo[3.2. 1]octane-8-carbonyl)-1H-pyrrole-2-carbonitrile]",,A (A: indicates that the ratio of IC50 against KrasG12D vs. IC50 against KrasG12S is 1-fold or greater),,≤ 1000
"Nc1nc2c(-c3c(Cl)cc4c(N5CCCC56CCCN(C(=O)n5cncn5)C6)nc(OC[C@@]56CCCN5C[C@H](F)C6)nc4c3F)ccc(F)c2s1 (stereo partly drawn) [Compound A144, (1-(7-(2-amino-7-fluorobenzo[d]thiazol-4-yl)-6-chloro-8-fluoro-2-(((2R,7aS)-2-fluorotetrahydro-1H-pyrrolizin-7a(5H)-yl)methoxy)quinazolin-4-yl)-1,7-diazaspiro[4.5]decan-7-yl)(1H-1,2,4-triazol-1-yl)methanone]",,A (A: indicates that the ratio of IC50 against KrasG12D vs. IC50 against KrasG12S is 1-fold or greater),1000 to 10000,
"Nc1nc2c(-c3c(Cl)cc4c(NC5CCN(C(=O)n6ccc(F)n6)CC5)nc(OC[C@@]56CCCN5C[C@H](F)C6)nc4c3F)ccc(F)c2s1 [Compound A222, (4-((7-(2-amino-7-fluorobenzo[d]thiazol-4-yl)-6-chloro-8-fluoro-2-(((2R,7aS)-2-fluorotetrahydro-1H-pyrrolizin-7a(5H)-yl)methoxy)quinazolin-4-yl)amino)piperidin-1-yl)(3-fluoro-1H-pyrazol-1-yl)methanone]",,A (A: indicates that the ratio of IC50 against KrasG12D vs. IC50 against KrasG12S is 1-fold or greater),1000 to 10000,
"Nc1nc2c(-c3c(Cl)cc4c(NC5CCN(C(=O)n6ccnc6)CC5)nc(OC[C@@]56CCCN5C[C@H](F)C6)nc4c3F)ccc(F)c2s1 [Compound A117, (4-((7-(2-amino-7-fluorobenzo[d]thiazol-4-yl)-6-chloro-8-fluoro-2-(((2R,7aS)-2-fluorotetrahydro-1H-pyrrolizin-7a(5H)-yl)methoxy)quinazolin-4-yl)amino)piperidin-1-yl)(1H-imidazol-1-yl)methanone]",,A (A: indicates that the ratio of IC50 against KrasG12D vs. IC50 against KrasG12S is 1-fold or greater),1000 to 10000,
"C[C@@H]1CN(C(=O)n2cncn2)[C@@H](C)CN1c1nc(OC[C@@]23CCCN2C[C@H](F)C3)nc2c(F)c(-c3ccc(F)c4sc(N)nc34)c(Cl)cc12 [Compound A244, ((2S,5R)-4-(7-(2-amino-7-fluorobenzo[d]thiazol-4-yl)-6-chloro-8-fluoro-2-(((2R,7aS)-2-fluorotetrahydro-1H-pyrrolizin-7a(5H)-yl)methoxy)quinazolin-4-yl)-2,5-dimethylpiperazin-1-yl)(1H-1,2,4-triazol-1-yl)methanone]",,A (A: indicates that the ratio of IC50 against KrasG12D vs. IC50 against KrasG12S is 1-fold or greater),1000 to 10000,
"N#Cc1nccn1C(=O)N1CC2CCC(C1)N2c1nc(OC[C@@]23CCCN2C[C@H](F)C3)nc2c(F)c(-c3ccc(F)c4sc(N)nc34)c(Cl)cc12 [Compound A238, 1-(8-(7-(2-amino-7-fluorobenzo[d]thiazol-4-yl)-6-chloro-8-fluoro-2-(((2R,7aS)-2-fluorotetrahydro-1H-pyrrolizin-7a(5H)-yl)methoxy)quinazolm-4-yl)-3,8-diazabicyclo[3.2. 1]octane-3-carbonyl)-1H-imidazole-2-carbonitrile]",,A (A: indicates that the ratio of IC50 against KrasG12D vs. IC50 against KrasG12S is 1-fold or greater),≤ 1000,
"Nc1nc2c(-c3c(Cl)cc4c(NCCN5CC6CCC(C5)N6C(=O)n5cncn5)nc(OC[C@@]56CCCN5C[C@H](F)C6)nc4c3F)ccc(F)c2s1 [Compound A168, (3-(2-((7-(2-amino-7-fluorobenzo[d]thiazol-4-yl)-6-chloro-8-fluoro-2-(((2R,7aS)-2-fluorotetrahydro-1H-pyrrolizin-7a(5H)-yl)methoxy)quinazolin-4-yl)amino)ethyl)-3,8-diazabicyclo[3.2.1]octan-8-yl)(1H-1,2,4-triazol-1-yl)methanone]",,A (A: indicates that the ratio of IC50 against KrasG12D vs. IC50 against KrasG12S is 1-fold or greater),,1000 to 10000
"Nc1nc2c(-c3c(Cl)cc4c(NC5CC6(C5)CN(C(=O)n5cncn5)C6)nc(OC[C@@]56CCCN5C[C@H](F)C6)nc4c3F)ccc(F)c2s1 [Compound A211, (6-((7-(2-amino-7-fluorobenzo[d]thiazol-4-yl)-6-chloro-8-fluoro-2-(((2R,7aS)-2-fluorotetrahydro-1H-pyrrolizin-7a(5H)-yl)methoxy)quinazolin-4-yl)amino)-2-azaspiro[3.3]heptan-2-yl)(1H-1,2,4-triazol-1-yl)methanone]",,A (A: indicates that the ratio of IC50 against KrasG12D vs. IC50 against KrasG12S is 1-fold or greater),1000 to 10000,
"Cc1cnn(C(=O)N2CCN(c3nc(OC[C@@]45CCCN4C[C@H](F)C5)nc4c(F)c(-c5ccc(F)c6sc(N)nc56)c(Cl)cc34)CC2)c1 [Compound A149, (4-(7-(2-amino-7-fluorobenzo[d]thiazol-4-yl)-6-chloro-8-fluoro-2-(((2R,7aS)-2-fluorotetrahydro-1H-pyrrolizin-7a(5H)-yl)methoxy)quinazolin-4-yl)piperazin-1-yl)(4-methyl-1H-pyrazol-1-yl)methanone]",,A (A: indicates that the ratio of IC50 against KrasG12D vs. IC50 against KrasG12S is 1-fold or greater),1000 to 10000,
"Nc1nc2c(-c3c(Cl)cc4c(N5C6COCC5CN(C(=O)n5cncn5)C6)nc(OC[C@@]56CCCN5C[C@H](F)C6)nc4c3F)ccc(F)c2s1 [Compound A270, (9-(7-(2-amino-7-fluorobenzo[d]thiazol-4-yl)-6-chloro-8-fluoro-2-(((2R,7aS)-2-fluorotetrahydro-1H-pyrrolizin-7a(5H)-yl)methoxy)quinazolin-4-yl)-3-oxa-7,9-diazabicyclo[3.3.1]nonan-7-yl)(1H-1,2,4-triazol-1-yl)methanone]",,A (A: indicates that the ratio of IC50 against KrasG12D vs. IC50 against KrasG12S is 1-fold or greater),,≤ 1000
